{"source": "paper PMC4216207", "about": "(Journal of Medicinal Chemistry, 2014)", "key": {"[1]": {"tested_on": "lentiviral vector harboring WT IN", "test": "microbe, parasite or virus in culture", "type": "cell-based, HIV-1", "settings": "for antiviral potency against WT vector with increasing FBS: 5%, 10% and 15% FBS, relative to values at 5% FBS, data not shown"}, "[2]": {"test": "cellular cytotoxicity assay", "type": "cell-based", "settings": "human, HOS human osteosarcoma cells"}, "[3]": {"tested_on": "HIV-1 construct carrying IN mutation R263 K", "test": "single-round HIV-1 infectivity assay, R263 K IN mutant", "type": "cell-based", "settings": "Human immunodeficiency virus 1, read-out: EC50 R263 K IN mutant"}, "[4]": {"tested_on": "HIV-1 construct carrying IN mutation G118R", "test": "single-round HIV-1 infectivity assay, G118R IN mutant", "type": "cell-based", "settings": "Human immunodeficiency virus 1, read-out: EC50 G118R IN mutant"}}, "data": [{"smiles": "Nc1c(C(=O)NCc2ccc(F)cc2F)c(=O)n(O)c2ncccc12", "note": "[5v, 4-Amino-N-(2,4-difluorobenzyl)-1-hydroxy-2-oxo-1,2-dihydro-1,8-naphthyridine-3-carboxamide]", "values": [{"measurement": "antiviral potency against WT vector with increasing FBS", "setting": "[1]", "value": "essentially unchanged"}]}, {"smiles": "CC(=O)OCCNc1c(C(=O)NCc2ccc(F)cc2F)c(=O)n(O)c2ncccc12", "note": "[5p, 2-((3-((2,4-Difluorobenzyl)carbamoyl)-1-hydroxy-2-oxo-1,2-dihydro-1,8-naphthyridin-4-yl)amino)ethyl Acetate]", "values": [{"measurement": "antiviral potency against WT vector with increasing FBS", "setting": "[1]", "value": "essentially unchanged"}]}, {"smiles": "COC(=O)[C@@H](CO)Nc1c(C(=O)NCc2ccc(F)cc2F)c(=O)n(O)c2ncccc12", "note": "[(R)-5t, Methyl (R)-2-((3-((2,4-Difluorobenzyl)carbamoyl)-1-hydroxy-2-oxo-1,2-dihydro-1,8-naphthyridin-4-yl)amino)-3-hydroxypropanoate]", "values": [{"measurement": "CC50", "setting": "[2]", "value": "> 250", "unit": "µM"}]}, {"smiles": "COC(=O)CNc1c(C(=O)NCc2ccc(F)cc2F)c(=O)n(O)c2ncccc12", "note": "[5q, Methyl 2-((3-((2,4-Difluorobenzyl)carbamoyl)-1-hydroxy-2-oxo-1,2-dihydro-1,8-naphthyridin-4-yl)amino)acetate]", "values": [{"measurement": "antiviral potency against WT vector with increasing FBS", "setting": "[1]", "value": "essentially unchanged"}]}, {"smiles": "Cc1nnc(C(=O)NC(C)(C)c2nc(C(=O)NCc3ccc(F)cc3)c(O)c(=O)n2C)o1", "note": "[compound 1, raltegravir]", "values": [{"measurement": "EC50", "setting": "[1]; Human immunodeficiency virus 1, read-out: EC50 (WT)", "value": "0.004 ± 0.002", "unit": "µM"}, {"measurement": "EC50", "setting": "[3]", "value": "0.009 ± 0.004", "unit": "µM"}, {"measurement": "EC50", "setting": "[4]", "value": "0.036 ± 0.005", "unit": "µM"}]}, {"smiles": "COC(=O)[C@H](Nc1c(C(=O)NCc2ccc(F)cc2F)c(=O)n(O)c2ncccc12)c1ccccc1", "note": "[(R)-5s, Methyl (R)-2-((3-((2,4-Difluorobenzyl)carbamoyl)-1-hydroxy-2-oxo-1,2-dihydro-1,8-naphthyridin-4-yl)amino)-2-phenylacetate]", "values": [{"measurement": "CC50", "setting": "[2]", "value": "> 250", "unit": "µM"}]}, {"smiles": "COC(=O)[C@H](C)Nc1c(C(=O)NCc2ccc(F)cc2F)c(=O)n(O)c2ncccc12", "note": "[(S)-5r, Methyl (S)-2-((3-((2,4-Difluorobenzyl)carbamoyl)-1-hydroxy-2-oxo-1,2-dihydro-1,8-naphthyridin-4-yl)amino)propanoate]", "values": [{"measurement": "CC50", "setting": "[2]", "value": "> 250", "unit": "µM"}]}]}
